From US11753399B2, “Therapeutic compounds” (Gilead Sciences, Inc., priority 2018, dated 2023) come the findings set out here.

For orientation: inhibition means the drop in the measured response relative to a control, in per cent. One may read the CC50 as the concentration at which the toxic effect on the cells reaches its halfway point. Lower therefore signals greater toxicity to the cells.

Where two headings read alike, the source gives them in different places.

Data set [1] has as its system HIV-IIIb. Briefly: Test A: Antiviral Assay in MT4 Cells. It counts as cell-based, HIV-1. The following applies: for inhibition at 0.01 µM: read-out: % inhibition at 0.01 μM; for inhibition at 0.2 µM: read-out: % inhibition at 0.20 μM. On the procedure:
(§1) MT-4 cells were next mixed with HIV-IIIb at a multiplicity of infection (m.o.i.) of 0.003 for 1 hour, after which time 35 μL of virus/cell mixture (2000 cells) was immediately added to each well containing 40 μL of diluted compound. The plates were then incubated at 37° C. for 5 days. After 5 days of incubation, 25 μl of 2× concentrated CellTiter-Glo Reagent (catalog #G7571, Promega Biosciences, Inc., Madison, Wis.) was added to each well containing MT-4 cells. Cell lysis was carried out by incubating at room temperature for 10 min and then chemiluminescence was read.

Data set [2] in a line: Test B: Cytotoxicity Assay (same protocol as Test A, uninfected cells). It counts as cell-based. The following applies: human, uninfected MT-4 cells, CellTiter-Glo. The method, then:
as §1, with “read. […] Compound cytotoxicity and the corresponding CC50 values was determined using the same protocol as described in the antiviral assay (Test A) except that uninfected cells were used.” for “read.”
(In ATP-based viability assays light output follows the ATP content of the culture.)

Setting [3] is: Human immunodeficiency virus 1, MT4, 120 h, inhibition of virus-induced cell killing, from dose response curve at 0.01 μM (10 nM), MT-4 cells, HIV-IIIb, 5 days, values normalized to 100%.
Setting [4] is: Human immunodeficiency virus 1, MT4, 120 h, inhibition of virus-induced cell killing, from dose response curve at 0.20 μM (200 nM), MT-4 cells, HIV-IIIb, 5 days, values normalized to 100%.
[5] abbreviates: Human immunodeficiency virus 1, IIIB, MT4, 120 h.

Consider `CC1(S(=O)(=O)Nc2nn(CC(F)F)c3c(-c4ccc(C#CC(C)(C)S(=O)(=O)C5CC5)nc4[C@H](Cc4cc(F)cc(F)c4)NC(=O)Cn4nc(C(F)F)c5c4C(F)(F)[C@@H]4C[C@H]54)ccc(Cl)c23)CC1` [Example 2F, N—((S)-1-(3-(4-chloro-1-(2,2-difluoroethyl)-3-((1-methylcyclopropane)-1-sulfonamido)-1H-indazol-7-yl)-6-(3-(cyclopropylsulfonyl)-3-methylbut-1-yn-1-yl)pyridin-2-yl)-2-(3,5-difluorophenyl)ethyl)-2-((3bS,4aR)-3-(difluoromethyl)-5,5-difluoro-3b,4,4a,5-tetrahydro-1H-cyclopropa[3,4]cyclopenta[1,2-c]pyrazol-1-yl)acetamide], for which the inhibition at 0.01 µM in data set [1] (setting [3]) is 100%. Moreover, in data set [1] (setting [4]), the inhibition at 0.2 µM turned out to be 100%. The CC50 at 5 days in data set [2] is > 57.1 µM.
For `Cn1nc(Nc2nnc(C(C)(C)O)o2)c2c(Cl)ccc(-c3ccc(C#CC(C)(C)S(=O)(=O)C4CC4)nc3[C@H](Cc3cc(F)cc(F)c3)NC(=O)Cn3nc(C(F)(F)F)c4c3C(F)(F)[C@@H]3C[C@H]43)c21` [Example 3F, N—((S)-1-(3-(4-chloro-3-((5-(2-hydroxypropan-2-yl)-1,3,4-oxadiazol-2-yl)amino)-1-methyl-1H-indazol-7-yl)-6-(3-(cyclopropylsulfonyl)-3-methylbut-1-yn-1-yl)pyridin-2-yl)-2-(3,5-difluorophenyl)ethyl)-2-((3bS,4aR)-5,5-difluoro-3-(trifluoromethyl)-3b,4,4a,5-tetrahydro-1H-cyclopropa[3,4]cyclopenta[1,2-c]pyrazol-1-yl)acetamide], the inhibition at 0.01 µM in data set [1] (setting [3]) is 100%. Also, the inhibition at 0.2 µM in data set [1] (setting [4]) amounted to 100%. In data set [2], the CC50 at 5 days came out at 21.8 µM.
Turning to `Cn1nc(NS(C)(=O)=O)c2c(Cl)ccc(-c3ccc(C#CC(C)(C)S(=O)(=O)C4CC4)nc3[C@H](Cc3cc(F)cc(F)c3)NC(=O)Cn3nc(C(F)F)c4c3C(F)(F)[C@@H]3C[C@H]43)c21` [Example 4], in data set [1] (setting [5]), the inhibition at 0.01 µM is 92% and the inhibition at 0.2 µM turned out to be 92%.
Turning to `CCS(=O)(=O)Nc1nn(C)c2c(-c3ccc(C#CC(C)(C)S(=O)(=O)C4CC4)nc3[C@H](Cc3cc(F)cc(F)c3)NC(=O)Cn3nc(C(F)F)c4c3C(F)(F)[C@@H]3C[C@H]43)ccc(Cl)c12` [Example 6], the inhibition at 0.01 µM in data set [1] (setting [3]) was found to be 100%. For the same compound, the inhibition at 0.2 µM in data set [1] (setting [4]) stood at 100%. Further, the CC50 at 5 days in data set [2] is > 57.1 µM.
As to `CCS(=O)(=O)Nc1nn(C)c2c(-c3ccc(C#CC(C)(C)S(=O)(=O)C4CC4)nc3[C@H](Cc3cc(F)cc(F)c3)NC(=O)Cn3nc(C(F)(F)F)c4c3C(F)(F)[C@@H]3C[C@H]43)ccc(Cl)c12` [Example 7], the inhibition at 0.01 µM in data set [1] (setting [3]) turned out to be 94%. Further, in data set [1] (setting [4]), the inhibition at 0.2 µM stood at 94%. Moreover, the CC50 at 5 days in data set [2] was > 57.1 µM.
As for `CC(C)(C#Cc1ccc(-c2ccc(Cl)c3c(NS(C)(=O)=O)nn(CC(F)F)c23)c([C@H](Cc2cc(F)cc(F)c2)NC(=O)Cn2nc(C(F)F)c3c2C(F)(F)[C@@H]2C[C@H]32)n1)S(=O)(=O)C1CC1` [Example 8], the inhibition at 0.01 µM in data set [1] (setting [3]) stood at 94%. Moreover, the inhibition at 0.2 µM in data set [1] (setting [4]) amounted to 94%. Besides, the CC50 at 5 days in data set [2] is > 57.1 µM.
For the compound `CCS(=O)(=O)Nc1nn(CC(F)F)c2c(-c3ccc(C#CC(C)(C)S(=O)(=O)C4CC4)nc3[C@H](Cc3cc(F)cc(F)c3)NC(=O)Cn3nc(C(F)F)c4c3C(F)(F)[C@@H]3C[C@H]43)ccc(Cl)c12` [Example 9], the inhibition at 0.01 µM in data set [1] (setting [3]) was 96%. Further, the inhibition at 0.2 µM in data set [1] (setting [4]) came out at 96%. In addition, the CC50 at 5 days in data set [2] was > 57.1 µM.
Consider `Cn1nc(Nc2nnc(C(C)(C)O)o2)c2c(Cl)ccc(-c3ccc(C#CC(C)(C)S(=O)(=O)C4CC4)nc3[C@H](Cc3cc(F)cc(F)c3)NC(=O)Cn3nc(C(F)F)c4c3C(F)(F)[C@@H]3C[C@H]43)c21` [Example 10], for which, in data set [1] (setting [3]), the inhibition at 0.01 µM stood at 100%. Moreover, the inhibition at 0.2 µM in data set [1] (setting [4]) is 100%. In data set [2], this compound returned a CC50 at 5 days of 18.5 µM.
As for `CCS(=O)(=O)Nc1nn(CC(F)F)c2c(-c3ccc(C#CC(C)(C)S(=O)(=O)C4CC4)nc3[C@H](Cc3cc(F)cc(F)c3)NC(=O)Cn3nc(C(F)(F)F)c4c3C(F)(F)[C@@H]3C[C@H]43)ccc(Cl)c12` [Example 11], the inhibition at 0.01 µM in data set [1] (setting [3]) stood at 92%. Also, the inhibition at 0.2 µM in data set [1] (setting [4]) turned out to be 92%. Further, the CC50 at 5 days in data set [2] was > 57.1 µM.
In the case of `Cn1nc(NS(=O)(=O)C2CC2)c2c(Cl)ccc(-c3ccc(C#CC(C)(C)S(=O)(=O)C4CC4)nc3[C@H](Cc3cc(F)cc(F)c3)NC(=O)Cn3nc(C(F)F)c4c3C(F)(F)[C@@H]3C[C@H]43)c21` [Example 12], the inhibition at 0.01 µM in data set [1] (setting [3]) was determined as 94%. For the same compound, the inhibition at 0.2 µM in data set [1] (setting [4]) was 94%. In data set [2], the CC50 at 5 days is > 57.1 µM.
Take `Cn1nc(NS(=O)(=O)C2CC2)c2c(Cl)ccc(-c3ccc(C#CC(C)(C)S(=O)(=O)C4CC4)nc3[C@H](Cc3cc(F)cc(F)c3)NC(=O)Cn3nc(C(F)(F)F)c4c3C(F)(F)[C@@H]3C[C@H]43)c21` [Example 13]: the inhibition at 0.01 µM in data set [1] (setting [3]) turned out to be 100%. For the same compound, in data set [1] (setting [4]), the inhibition at 0.2 µM stood at 100%. The CC50 at 5 days in data set [2] is > 57.1 µM.
Turning to `Cn1nc(NS(=O)(=O)CC2CC2)c2c(Cl)ccc(-c3ccc(C#CC(C)(C)S(=O)(=O)C4CC4)nc3[C@H](Cc3cc(F)cc(F)c3)NC(=O)Cn3nc(C(F)F)c4c3C(F)(F)[C@@H]3C[C@H]43)c21` [Example 14], the inhibition at 0.01 µM in data set [1] (setting [3]) stood at 100%. The inhibition at 0.2 µM in data set [1] (setting [4]) came to 100%. The CC50 at 5 days in data set [2] was > 57.1 µM.
As for `Cn1nc(NS(=O)(=O)CC2CC2)c2c(Cl)ccc(-c3ccc(C#CC(C)(C)S(=O)(=O)C4CC4)nc3[C@H](Cc3cc(F)cc(F)c3)NC(=O)Cn3nc(C(F)(F)F)c4c3C(F)(F)[C@@H]3C[C@H]43)c21` [Example 15], in data set [1] (setting [3]), the inhibition at 0.01 µM came out at 98%. The inhibition at 0.2 µM in data set [1] (setting [4]) was found to be 98%. In data set [2], the CC50 at 5 days is > 57.1 µM.
As to `CC(C)(C#Cc1ccc(-c2ccc(Cl)c3c(NS(=O)(=O)C4CC4)nn(CC(F)F)c23)c([C@H](Cc2cc(F)cc(F)c2)NC(=O)Cn2nc(C(F)F)c3c2C(F)(F)[C@@H]2C[C@H]32)n1)S(=O)(=O)C1CC1` [Example 16], the inhibition at 0.01 µM in data set [1] (setting [3]) is 98%. Further, the inhibition at 0.2 µM in data set [1] (setting [4]) came out at 98%. Besides, in data set [2], the CC50 at 5 days is > 57.1 µM.
Turning to `CC(C)(C#Cc1ccc(-c2ccc(Cl)c3c(NS(C)(=O)=O)nn(CC(F)(F)F)c23)c([C@H](Cc2cc(F)cc(F)c2)NC(=O)Cn2nc(C(F)F)c3c2C(F)(F)[C@@H]2C[C@H]32)n1)S(=O)(=O)C1CC1` [Example 17], the inhibition at 0.01 µM in data set [1] (setting [3]) came to 98%. Also, in data set [1] (setting [4]), the inhibition at 0.2 µM was 98%. Also, the CC50 at 5 days in data set [2] is > 24 µM.
In the case of `CC(C)(C#Cc1ccc(-c2ccc(Cl)c3c(NS(C)(=O)=O)nn(C4COC4)c23)c([C@H](Cc2cc(F)cc(F)c2)NC(=O)Cn2nc(C(F)F)c3c2C(F)(F)[C@@H]2C[C@H]32)n1)S(=O)(=O)C1CC1` [Example 18], the inhibition at 0.01 µM in data set [1] (setting [3]) turned out to be 100%. The inhibition at 0.2 µM in data set [1] (setting [4]) was 100%. Moreover, the CC50 at 5 days in data set [2] came out at 41.6 µM.
In the case of `CC(C)(C#Cc1ccc(-c2ccc(Cl)c3c(NS(C)(=O)=O)nn(C4COC4)c23)c([C@H](Cc2cc(F)cc(F)c2)NC(=O)Cn2nc(C(F)(F)F)c3c2C(F)(F)[C@@H]2C[C@H]32)n1)S(=O)(=O)C1CC1` [Example 19], in data set [1] (setting [3]), the inhibition at 0.01 µM was 97%. Moreover, the inhibition at 0.2 µM in data set [1] (setting [4]) came to 97%. Further, the CC50 at 5 days in data set [2] was > 57.1 µM.
